According to ChEMBL document CHEMBL4373693, “Virtual Screening Approach and Investigation of Structure-Activity Relationships To Discover Novel Bacterial Topoisomerase Inhibitors Targeting Gram-Positive and Gram-Negative Pathogens” (J Med Chem, 2019):
Values after ≈ are worked out from the molar mass of the structure shown.

Columns and labels:
DNA gyrase subunit A [1] = molecular target: DNA gyrase subunit A (Staphylococcus aureus, UniProt P20831); test: Inhibition of Staphylococcus aureus ATCC 29213 DNA gyrase A assessed as reduction in enzyme-mediated supercoiling of relaxed pBR322 DNA by ethidium bromide staining based gel electrophoresis method
Sequence of DNA gyrase subunit A (Staphylococcus aureus, UniProt P20831) (P20831 whole entry): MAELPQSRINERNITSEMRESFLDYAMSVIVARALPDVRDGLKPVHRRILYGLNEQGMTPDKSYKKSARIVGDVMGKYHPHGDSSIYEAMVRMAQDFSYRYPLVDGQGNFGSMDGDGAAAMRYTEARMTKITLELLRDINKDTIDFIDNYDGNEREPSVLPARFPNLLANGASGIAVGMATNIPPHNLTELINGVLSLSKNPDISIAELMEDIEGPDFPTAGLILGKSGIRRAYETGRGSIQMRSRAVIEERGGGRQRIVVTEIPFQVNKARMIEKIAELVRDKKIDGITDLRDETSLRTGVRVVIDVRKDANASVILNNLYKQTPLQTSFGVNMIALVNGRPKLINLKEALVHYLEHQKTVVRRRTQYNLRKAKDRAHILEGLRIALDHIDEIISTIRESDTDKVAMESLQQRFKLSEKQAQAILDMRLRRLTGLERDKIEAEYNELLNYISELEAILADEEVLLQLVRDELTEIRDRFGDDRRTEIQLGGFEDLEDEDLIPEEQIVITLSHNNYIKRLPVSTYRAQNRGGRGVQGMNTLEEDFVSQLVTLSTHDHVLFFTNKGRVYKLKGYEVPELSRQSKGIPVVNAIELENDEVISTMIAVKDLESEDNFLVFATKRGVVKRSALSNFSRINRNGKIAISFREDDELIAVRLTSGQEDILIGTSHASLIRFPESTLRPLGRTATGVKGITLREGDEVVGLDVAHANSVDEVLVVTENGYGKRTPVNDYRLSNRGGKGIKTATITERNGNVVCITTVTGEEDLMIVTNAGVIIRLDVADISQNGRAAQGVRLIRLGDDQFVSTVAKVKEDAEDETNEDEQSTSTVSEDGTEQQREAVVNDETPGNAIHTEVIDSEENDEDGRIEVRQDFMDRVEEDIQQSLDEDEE

DNA gyrase subunit A [2] = molecular target: DNA gyrase subunit A (Escherichia coli K-12, UniProt P0AES4); test: Inhibition of Escherichia coli ATCC 25922 DNA gyrase A assessed as reduction in enzyme-mediated supercoiling of relaxed pBR322 DNA by ethidium bromide staining based gel electrophoresis method
Sequence of DNA gyrase subunit A (Escherichia coli K-12, UniProt P0AES4) (P0AES4 whole entry): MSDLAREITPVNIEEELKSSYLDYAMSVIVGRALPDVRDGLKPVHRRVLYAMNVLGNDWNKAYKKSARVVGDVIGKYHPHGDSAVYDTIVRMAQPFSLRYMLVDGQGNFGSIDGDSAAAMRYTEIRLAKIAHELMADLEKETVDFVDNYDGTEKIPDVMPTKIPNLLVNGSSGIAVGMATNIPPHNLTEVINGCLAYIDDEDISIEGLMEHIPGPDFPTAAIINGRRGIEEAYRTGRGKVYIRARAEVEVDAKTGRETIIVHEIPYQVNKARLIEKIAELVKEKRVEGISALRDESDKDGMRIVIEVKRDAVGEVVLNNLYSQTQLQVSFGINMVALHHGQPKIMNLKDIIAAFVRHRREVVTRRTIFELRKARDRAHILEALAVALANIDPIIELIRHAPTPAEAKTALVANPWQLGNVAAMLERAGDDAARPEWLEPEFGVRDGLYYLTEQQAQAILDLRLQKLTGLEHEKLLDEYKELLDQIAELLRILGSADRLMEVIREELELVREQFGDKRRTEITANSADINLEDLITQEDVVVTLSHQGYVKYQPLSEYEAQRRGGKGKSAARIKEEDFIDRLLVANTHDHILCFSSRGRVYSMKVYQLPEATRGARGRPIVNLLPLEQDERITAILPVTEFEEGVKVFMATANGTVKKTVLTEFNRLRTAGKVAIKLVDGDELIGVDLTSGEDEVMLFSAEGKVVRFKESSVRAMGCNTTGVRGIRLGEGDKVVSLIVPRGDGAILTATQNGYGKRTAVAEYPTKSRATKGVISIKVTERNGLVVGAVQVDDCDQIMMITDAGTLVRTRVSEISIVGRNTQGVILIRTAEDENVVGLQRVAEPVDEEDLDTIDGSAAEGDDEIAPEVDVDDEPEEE

[3] = molecular target: DNA topoisomerase 4 subunit A (Staphylococcus aureus, UniProt P0C1U9); test: Inhibition of Staphylococcus aureus ATCC 29213 DNA topoisomerase 4 subunit ParC assessed as reduction in decatenation of kinetoplast DNA incubated for 30 mins by ethidium bromide staining based gel electrophoresis method
Sequence of DNA topoisomerase 4 subunit A (Staphylococcus aureus, UniProt P0C1U9) (P0C1U9 whole entry): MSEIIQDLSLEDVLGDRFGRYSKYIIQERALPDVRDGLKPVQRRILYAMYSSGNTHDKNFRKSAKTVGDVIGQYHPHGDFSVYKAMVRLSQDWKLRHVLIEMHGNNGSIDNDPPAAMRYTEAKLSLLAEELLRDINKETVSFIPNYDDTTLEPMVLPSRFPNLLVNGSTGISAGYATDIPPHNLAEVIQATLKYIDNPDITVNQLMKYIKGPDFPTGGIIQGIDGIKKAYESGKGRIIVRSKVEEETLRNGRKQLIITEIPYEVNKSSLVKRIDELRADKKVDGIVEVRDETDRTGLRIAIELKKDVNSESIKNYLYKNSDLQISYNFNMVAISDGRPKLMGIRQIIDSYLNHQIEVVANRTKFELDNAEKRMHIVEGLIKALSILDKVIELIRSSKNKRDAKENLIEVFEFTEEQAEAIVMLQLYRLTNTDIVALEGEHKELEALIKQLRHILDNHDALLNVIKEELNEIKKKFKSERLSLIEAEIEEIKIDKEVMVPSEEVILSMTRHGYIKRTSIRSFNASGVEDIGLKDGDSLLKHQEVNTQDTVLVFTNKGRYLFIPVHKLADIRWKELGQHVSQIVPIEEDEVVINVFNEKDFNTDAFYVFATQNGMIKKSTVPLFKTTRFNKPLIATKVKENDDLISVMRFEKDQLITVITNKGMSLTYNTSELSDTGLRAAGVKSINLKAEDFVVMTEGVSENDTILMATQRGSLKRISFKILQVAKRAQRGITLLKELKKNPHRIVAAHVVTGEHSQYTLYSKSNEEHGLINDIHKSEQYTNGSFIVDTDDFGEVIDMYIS

[4] = molecular target: T1, DNA topoisomerase 4 subunit A (Escherichia coli K-12, UniProt P0AFI2); test: Inhibition of Escherichia coli ATCC 25922 DNA topoisomerase 4 subunit ParC assessed as reduction in decatenation of kinetoplast DNA incubated for 30 mins by ethidium bromide staining based gel electrophoresis method
T1 sequence (P0AFI2 whole entry): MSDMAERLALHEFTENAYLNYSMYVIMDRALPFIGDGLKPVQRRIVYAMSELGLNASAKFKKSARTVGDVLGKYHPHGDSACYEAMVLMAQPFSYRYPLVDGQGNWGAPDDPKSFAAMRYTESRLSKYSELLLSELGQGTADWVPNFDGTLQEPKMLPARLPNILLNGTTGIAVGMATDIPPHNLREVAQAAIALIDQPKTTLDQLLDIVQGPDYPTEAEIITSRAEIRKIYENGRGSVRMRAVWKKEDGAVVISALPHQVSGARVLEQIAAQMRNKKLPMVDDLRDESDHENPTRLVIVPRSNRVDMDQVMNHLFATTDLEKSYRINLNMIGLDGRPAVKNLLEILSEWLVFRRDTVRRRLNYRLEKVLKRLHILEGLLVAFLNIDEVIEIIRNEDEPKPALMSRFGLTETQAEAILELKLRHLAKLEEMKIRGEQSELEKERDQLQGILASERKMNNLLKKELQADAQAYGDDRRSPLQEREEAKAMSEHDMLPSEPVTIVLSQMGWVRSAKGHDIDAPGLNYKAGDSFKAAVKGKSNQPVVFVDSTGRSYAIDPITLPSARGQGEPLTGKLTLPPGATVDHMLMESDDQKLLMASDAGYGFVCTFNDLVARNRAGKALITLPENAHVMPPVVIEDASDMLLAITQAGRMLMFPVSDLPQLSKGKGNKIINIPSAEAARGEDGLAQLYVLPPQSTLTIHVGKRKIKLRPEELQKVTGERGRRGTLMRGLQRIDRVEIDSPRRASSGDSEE

Pseudomonas aeruginosa = test: Antibacterial activity against Pseudomonas aeruginosa ATCC 27853 after 16 to 24 hrs by CLSI method; type: functional
Staphylococcus aureus [5] = test: Antibacterial activity against Staphylococcus aureus ATCC 29213 after 16 to 24 hrs by broth microdilution method; type: functional
Escherichia coli [6] = test: Antibacterial activity against Escherichia coli ATCC 25922 after 16 to 24 hrs by broth microdilution method; type: functional
Staphylococcus aureus [7] = test: Antibacterial activity against Staphylococcus aureus BAA-1720 after 16 to 24 hrs by broth microdilution method; type: functional
Enterococcus faecalis [8] = test: Antibacterial activity against Enterococcus faecalis ATCC 29212 after 16 to 24 hrs by broth microdilution method; type: functional
Haemophilus influenzae [9] = test: Antibacterial activity against quinolone-sensitive Haemophilus influenzae ATCC 49766 after 16 to 24 hrs by broth microdilution method; type: functional
Enterococcus faecalis [10] = test: Antibacterial activity against vancomycin and teicoplanin-resistant Enterococcus faecalis APV 00408 after 16 to 24 hrs by broth microdilution method; type: functional
Enterococcus faecium [11] = test: Antibacterial activity against Enterococcus faecium APV 00627 after 16 to 24 hrs by broth microdilution method; type: functional
Staphylococcus aureus [12] = test: Antibacterial activity against Staphylococcus aureus BAA-1720 in presence of 50% human serum after 16 to 24 hrs by broth microdilution method; type: functional
HepG2 = test: Cytotoxicity against human HepG2 cells after 48 hrs by Alamar blue staining-based fluorometric analysis; type: cell-based; details: HepG2, 48 h
Enterococcus faecium [13] = test: Antibacterial activity against Enterococcus faecium APV 00626 after 16 to 24 hrs by broth microdilution method; type: functional
Klebsiella pneumoniae = test: Antibacterial activity against quinolone-sensitive Klebsiella pneumoniae ATCC 700603 after 16 to 24 hrs by broth microdilution method; type: functional
Enterococcus faecalis [14] = test: Antibacterial activity against vancomycin-sensitive Enterococcus faecalis APV 00406 after 16 to 24 hrs by broth microdilution method; type: functional
hERG (KCNH2) = hERG (KCNH2) (Homo sapiens, UniProt Q12809); test: Inhibition of human ERG expressed in CHO cells at 10 uM after 5 mins by automated whole-cell patch clamp relative to control; type: cell-based; details: CHO cells that express human ERG
Sequence of hERG (KCNH2) (Q12809 whole entry): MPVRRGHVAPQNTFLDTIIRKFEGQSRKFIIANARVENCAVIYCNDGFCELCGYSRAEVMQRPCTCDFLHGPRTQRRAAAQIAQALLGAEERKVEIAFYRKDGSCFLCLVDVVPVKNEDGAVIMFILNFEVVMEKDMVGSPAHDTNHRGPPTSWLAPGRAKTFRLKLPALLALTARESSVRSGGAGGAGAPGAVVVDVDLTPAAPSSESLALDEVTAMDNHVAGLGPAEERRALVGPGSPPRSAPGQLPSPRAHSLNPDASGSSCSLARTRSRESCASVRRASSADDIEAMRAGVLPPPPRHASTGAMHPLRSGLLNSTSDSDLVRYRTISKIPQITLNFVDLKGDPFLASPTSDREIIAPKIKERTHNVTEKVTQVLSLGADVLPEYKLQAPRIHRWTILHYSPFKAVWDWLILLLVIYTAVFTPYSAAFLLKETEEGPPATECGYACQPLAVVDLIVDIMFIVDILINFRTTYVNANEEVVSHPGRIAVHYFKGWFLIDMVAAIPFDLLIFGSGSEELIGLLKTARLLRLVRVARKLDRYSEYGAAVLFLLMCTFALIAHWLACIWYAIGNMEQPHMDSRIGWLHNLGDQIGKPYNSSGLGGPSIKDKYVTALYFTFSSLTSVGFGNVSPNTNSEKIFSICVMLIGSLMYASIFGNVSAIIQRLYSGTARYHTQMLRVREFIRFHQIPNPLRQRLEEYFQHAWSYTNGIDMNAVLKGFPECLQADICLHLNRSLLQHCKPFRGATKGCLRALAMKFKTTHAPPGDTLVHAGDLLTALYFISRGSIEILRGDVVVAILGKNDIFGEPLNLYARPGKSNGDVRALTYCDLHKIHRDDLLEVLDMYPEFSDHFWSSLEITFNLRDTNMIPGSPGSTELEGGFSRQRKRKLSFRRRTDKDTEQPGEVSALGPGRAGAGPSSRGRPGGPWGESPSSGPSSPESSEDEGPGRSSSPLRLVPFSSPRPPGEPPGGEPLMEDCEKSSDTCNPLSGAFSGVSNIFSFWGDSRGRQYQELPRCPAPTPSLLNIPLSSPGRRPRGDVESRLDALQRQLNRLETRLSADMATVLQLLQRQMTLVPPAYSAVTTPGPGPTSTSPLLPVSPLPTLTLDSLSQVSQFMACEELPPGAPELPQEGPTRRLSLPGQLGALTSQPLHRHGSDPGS

Enterococcus faecalis [15] = test: Antibacterial activity against vancomycin-sensitive Enterococcus faecalis APV 00623 after 16 to 24 hrs by broth microdilution method; type: functional
Enterococcus faecium [16] = test: Antibacterial activity against vancomycin resistant and teicoplanin sensitive Enterococcus faecium APV 00420 after 16 to 24 hrs by broth microdilution method; type: functional
Staphylococcus aureus [17] = test: Selectivity ratio of MIC for Staphylococcus aureus ATCC 29213 in presence of 50% human serum to MIC for Staphylococcus aureus ATCC 29213; type: functional
Escherichia coli [18] = test: Antibacterial activity against Escherichia coli ATCC 25922 in presence of 50% human serum after 16 to 24 hrs by broth microdilution method; type: functional
Escherichia coli [19] = test: Selectivity ratio of MIC for Escherichia coli ATCC 25922 in presence of 50% human serum to MIC for Escherichia coli ATCC 25922; type: functional
Neisseria gonorrhoeae = test: Antibacterial activity against Neisseria gonorrhoeae ATCC 19424 after 16 to 24 hrs by broth microdilution method; type: functional
[20] = Selectivity ratio, ratio of IC50 for human HEK293 cells to MIC for Escherichia coli ATCC 25922; type: toxicity; details: read-out: Selectivity Index
Enterococcus faecium [21] = test: Antibacterial activity against vancomycin and teicoplanin-resistant Enterococcus faecium APV 00422 after 16 to 24 hrs by broth microdilution method; type: functional
HEK293 = test: Cytotoxicity against human HEK293 cells after 48 hrs by Alamar blue staining-based fluorometric analysis; type: cell-based; details: HEK293, 48 h
Enterococcus faecium [22] = test: Antibacterial activity against vancomycin and teicoplanin-resistant Enterococcus faecium APV 00424 after 16 to 24 hrs by broth microdilution method; type: functional
[23] = Selectivity ratio, ratio of IC50 for human HEK293 cells to MIC for Staphylococcus aureus ATCC 29213; type: toxicity; details: read-out: Selectivity Index
[24] = Selectivity ratio, ratio of IC50 for human HepG2 cells to MIC for Staphylococcus aureus ATCC 29213; type: toxicity; details: read-out: Selectivity Index
Enterococcus faecium [25] = test: Antibacterial activity against vancomycin resistant and teicoplanin sensitive Enterococcus faecium APV 00553 after 16 to 24 hrs by broth microdilution method; type: functional
Staphylococcus aureus [26] = test: Selectivity ratio of MIC for Staphylococcus aureus BAA-1720 in presence of 50% human serum to MIC for Staphylococcus aureus BAA-1720; type: functional
Enterococcus faecalis [27] = test: Antibacterial activity against vancomycin-sensitive Enterococcus faecalis APV 00404 after 16 to 24 hrs by broth microdilution method; type: functional
Haemophilus influenzae [28] = test: Antibacterial activity against quinolone-sensitive Haemophilus influenzae H128 after 16 to 24 hrs by broth microdilution method; type: functional
Enterococcus faecalis [29] = test: Antibacterial activity against vancomycin and teicoplanin-resistant Enterococcus faecalis APV 00409 after 16 to 24 hrs by broth microdilution method; type: functional
[30] = Selectivity ratio, ratio of IC50 for human HepG2 cells to MIC for Escherichia coli ATCC 25922; type: toxicity; details: read-out: Selectivity Index
Staphylococcus aureus [31] = test: Antibacterial activity against Staphylococcus aureus ATCC 29213 in presence of 50% human serum after 16 to 24 hrs by broth microdilution method; type: functional
Staphylococcus aureus [32] = test: Antibacterial activity against Staphylococcus aureus; type: functional
Escherichia coli [33] = test: Antibacterial activity against Escherichia coli; type: functional

Row | SMILES | IC50 (DNA gyrase subunit A [1]) [nM] | IC50 (DNA gyrase subunit A [2]) [nM] | IC50 [3] [nM] | MIC (Staphylococcus aureus [5]) | MIC (Staphylococcus aureus [7]) [µg/mL] | MIC (Enterococcus faecalis [8]) [µg/mL] | MIC (Haemophilus influenzae [9]) [µg/mL] | MIC (Enterococcus faecalis [10]) [µg/mL] | MIC (Enterococcus faecium [11]) [µg/mL] | MIC (Enterococcus faecium [13]) [µg/mL] | MIC (Klebsiella pneumoniae) [µg/mL] | MIC (Enterococcus faecalis [14]) [µg/mL] | MIC (Enterococcus faecalis [15]) [µg/mL] | MIC (Enterococcus faecium [16]) [µg/mL] | MIC (Enterococcus faecium [21]) [µg/mL] | MIC (Enterococcus faecium [22]) [µg/mL] | MIC (Enterococcus faecium [25]) [µg/mL] | MIC (Enterococcus faecalis [27]) [µg/mL] | MIC (Haemophilus influenzae [28]) [µg/mL] | MIC (Enterococcus faecalis [29]) [µg/mL] | further results
1 | O=c1cc(NCC(O)CN2CCN(c3nccc4ncccc34)CC2)c2cc(F)ccc2o1 (racemic) | 1100 | 150 | 300 | 4 µg/mL | 4 (≈ 8.9 µM) | – | – | – | – | – | – | – | – | – | – | – | – | – | – | – | IC50 [4]: 200 nM; MIC (Pseudomonas aeruginosa): 8 µg/mL (≈ 17.8 µM); MIC (Escherichia coli [6]): 2 µg/mL
2 | O=c1nc(NCC(O)CN2CCN(c3nccc4ccc(F)cc34)CC2)c2cc(F)ccc2o1 (racemic) | 20 | 400 | 50 | 0.21 µM | 0.25 (≈ 0.535 µM) | 0.5 (≈ 1.07 µM) | 0.25 (≈ 0.535 µM) | 0.25 (≈ 0.535 µM) | 1 (≈ 2.14 µM) | 16 (≈ 34.2 µM) | 4 (≈ 8.56 µM) | 0.25 (≈ 0.535 µM) | 0.5 (≈ 1.07 µM) | 1 (≈ 2.14 µM) | 0.25 (≈ 0.535 µM) | 0.12 (≈ 0.257 µM) | 0.5 (≈ 1.07 µM) | 0.25 (≈ 0.535 µM) | 0.12 (≈ 0.257 µM) | 0.12 (≈ 0.257 µM) | MIC (Staphylococcus aureus [12]): > 8 µg/mL; IC50 [4]: 100 nM; IC50 (HepG2): 55000 nM; MIC (Pseudomonas aeruginosa): 4 µg/mL (≈ 8.56 µM); inhibition at 5 min, 10 µM (hERG (KCNH2)): 67%; Ratio (Staphylococcus aureus [17]): >=32 - 267; MIC (Escherichia coli [18]): > 8 µg/mL; Ratio (Escherichia coli [19]): >=32 - 267; MIC (Neisseria gonorrhoeae): ≤ 0.06 µg/mL; selectivity ratio [20]: 37; IC50 (HEK293): 80000 nM; MIC (Escherichia coli [6]): 2.14 µM; selectivity ratio [23]: 381; selectivity ratio [24]: 262; Ratio (Staphylococcus aureus [26]): >=32 - 267; selectivity ratio [30]: 26; MIC (Staphylococcus aureus [31]): > 8 µg/mL
3 | O=C(O)c1cn(C2CC2)c2cc(N3CCNCC3)c(F)cc2c1=O [CIPROFLOXACIN] | – | – | – | 0.25 to 0.5 µg/mL | 4 to 64 (≈ 12.1 to 193 µM) | 1 (≈ 3.02 µM) | 0.015 (≈ 0.0453 µM) | 64 (≈ 193 µM) | 4 (≈ 12.1 µM) | 16 (≈ 48.3 µM) | 0.125 (≈ 0.377 µM) | 64 (≈ 193 µM) | 2 (≈ 6.04 µM) | > 32 | 128 (≈ 386 µM) | > 128 | 128 (≈ 386 µM) | 2 (≈ 6.04 µM) | 0.008 (≈ 0.0241 µM) | 32 (≈ 96.6 µM) | MIC (Staphylococcus aureus [12]): > 4 µg/mL; MIC (Neisseria gonorrhoeae): ≤ 0.06 µg/mL; MIC (Staphylococcus aureus [31]): 0.25 µg/mL
4 | O=c1ccc2ncc(=O)n3c2n1C[C@H]3CN1CCC(NCc2cc3c(cn2)OCCC3)CC1 [GEPOTIDACIN] | – | – | – | – | – | – | – | – | – | – | – | – | – | – | – | – | – | – | – | – | MIC90 (Staphylococcus aureus [32]): 0.5 µg/mL (≈ 1.11 µM); MIC90 (Escherichia coli [33]): 4 µg/mL (≈ 8.92 µM)
5 | CN[C@H](CC(C)C)C(=O)N[C@H]1C(=O)N[C@@H](CC(N)=O)C(=O)N[C@H]2C(=O)N[C@H]3C(=O)N[C@H](C(=O)N[C@H](C(=O)O)c4cc(O)cc(O)c4-c4cc3ccc4O)[C@H](O)c3ccc(c(Cl)c3)Oc3cc2cc(c3O[C@@H]2O[C@H](CO)[C@@H](O)[C@H](O)[C@H]2O[C@H]2C[C@](C)(N)[C@H](O)[C@H](C)O2)Oc2ccc(cc2Cl)[C@H]1O [VANCOMYCIN] | – | – | – | – | – | 4 (≈ 2.76 µM) | > 8 | > 128 | > 128 | > 128 | > 8 | 1 (≈ 0.69 µM) | 2 (≈ 1.38 µM) | > 8 | > 128 | > 128 | > 128 | 2 (≈ 1.38 µM) | > 8 | > 128 | –
